From paper PMC3808535, “Pannexin1 Channel Proteins in the Zebrafish Retina Have Shared and Unique Properties” (PLoS ONE, 2013)
Residue numbers refer to the chain shown, from its start. One block for each compound: values may come before it.

Tests used:
Assay in all cases: ethidium dye uptake in transfected N2a cells
Type in all cases: cell-based
drPanx1a [1] = biological target: T1, drPanx1a (Danio rerio, UniProt A0A8M1PG01, C76A); conditions: 100 uM BBG, 20 uM EtBr, 5 min, pH 7.4; endogenous Panx1 and P2X7-R in N2a host
T1 construct: gene panx1a; full length aa 1-417 (natural Cys at position 76), C-terminal EYFP fusion (pEYFP-N1), transient in mouse N2a cells
T1 sequence (A0A8M1PG01 1-417 C76A): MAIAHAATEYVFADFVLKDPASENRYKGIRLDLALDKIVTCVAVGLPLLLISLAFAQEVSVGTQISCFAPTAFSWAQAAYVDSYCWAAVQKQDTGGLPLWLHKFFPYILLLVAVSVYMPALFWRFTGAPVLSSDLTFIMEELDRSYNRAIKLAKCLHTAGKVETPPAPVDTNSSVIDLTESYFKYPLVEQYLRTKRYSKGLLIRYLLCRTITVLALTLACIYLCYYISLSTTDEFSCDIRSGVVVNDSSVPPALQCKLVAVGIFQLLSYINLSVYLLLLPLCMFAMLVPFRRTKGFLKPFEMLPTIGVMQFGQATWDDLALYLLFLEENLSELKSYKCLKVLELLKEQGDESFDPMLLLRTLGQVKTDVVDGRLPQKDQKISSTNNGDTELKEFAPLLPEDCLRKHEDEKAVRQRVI

drPanx1b [2] = biological target: T2, drPanx1b (Danio rerio, UniProt F1QSR7, R75C/H238Y); conditions: 100 uM BBG, 20 uM EtBr, 5 min, pH 7.4; endogenous Panx1 and P2X7-R in N2a host
T2 construct: gene panx1b; full length aa 1-422, C-terminal EYFP fusion (pEYFP-N1), transient in mouse N2a cells
T2 sequence (F1QSR7 1-422 R75C/H238Y): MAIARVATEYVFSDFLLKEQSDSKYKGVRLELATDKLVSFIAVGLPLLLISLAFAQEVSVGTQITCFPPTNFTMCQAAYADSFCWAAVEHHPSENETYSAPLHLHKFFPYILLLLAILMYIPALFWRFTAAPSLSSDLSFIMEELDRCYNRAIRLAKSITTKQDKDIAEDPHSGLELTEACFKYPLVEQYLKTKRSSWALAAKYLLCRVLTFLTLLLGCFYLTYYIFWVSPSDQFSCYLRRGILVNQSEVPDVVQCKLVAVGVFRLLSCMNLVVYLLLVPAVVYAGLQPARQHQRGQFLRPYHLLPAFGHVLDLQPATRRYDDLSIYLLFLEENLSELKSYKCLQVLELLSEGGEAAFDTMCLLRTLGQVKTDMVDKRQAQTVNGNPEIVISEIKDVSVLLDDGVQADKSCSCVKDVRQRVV

drPanx1b [3] = biological target: T3, drPanx1b (Danio rerio, UniProt F1QSR7, R75K/H238Y); conditions: 100 uM BBG, 20 uM EtBr, 5 min, pH 7.4; endogenous Panx1 and P2X7-R in N2a host
T3 construct: gene panx1b; full length aa 1-422, C-terminal EYFP fusion (pEYFP-N1), transient in mouse N2a cells
T3 sequence (F1QSR7 1-422 R75K/H238Y): T2 sequence (F1QSR7 1-422 R75C/H238Y) with C75K

drPanx1a [4] = biological target: T4, drPanx1a (Danio rerio, UniProt A0A8M1PG01, C76R); conditions: 100 uM BBG, 20 uM EtBr, 5 min, pH 7.4; endogenous Panx1 and P2X7-R in N2a host
T4 construct: gene panx1a; full length aa 1-417 (natural Cys at position 76), C-terminal EYFP fusion (pEYFP-N1), transient in mouse N2a cells
T4 sequence (A0A8M1PG01 1-417 C76R): T1 sequence (A0A8M1PG01 1-417 C76A) with A76R

drPanx1a [5] = biological target: T5, drPanx1a (Danio rerio, UniProt A0A8M1PG01, C76K); conditions: 100 uM BBG, 20 uM EtBr, 5 min, pH 7.4; endogenous Panx1 and P2X7-R in N2a host
T5 construct: gene panx1a; full length aa 1-417 (natural Cys at position 76), C-terminal EYFP fusion (pEYFP-N1), transient in mouse N2a cells
T5 sequence (A0A8M1PG01 1-417 C76K): T1 sequence (A0A8M1PG01 1-417 C76A) with A76K

drPanx1b [6] = biological target: T6, drPanx1b (Danio rerio, UniProt F1QSR7, R75E/H238Y); conditions: 100 uM BBG, 20 uM EtBr, 5 min, pH 7.4; endogenous Panx1 and P2X7-R in N2a host
T6 construct: gene panx1b; full length aa 1-422, C-terminal EYFP fusion (pEYFP-N1), transient in mouse N2a cells
T6 sequence (F1QSR7 1-422 R75E/H238Y): T2 sequence (F1QSR7 1-422 R75C/H238Y) with C75E

drPanx1a [7] = biological target: T7, drPanx1a (Danio rerio, UniProt A0A8M1PG01)
T7 construct: gene panx1a; full length aa 1-417 (natural Cys at position 76), C-terminal EYFP fusion (pEYFP-N1), transient in mouse N2a cells
T7 sequence (A0A8M1PG01 1-417): T1 sequence (A0A8M1PG01 1-417 C76A) with A76C

mPanx1 [8] = biological target: T8, mPanx1 (Mus musculus, UniProt Q9JIP4); conditions: read-out: % inhibition at 100 uM
T8 construct: gene Panx1; full length aa 1-426, C-terminal EYFP fusion (pEYFP-N1), transient in mouse N2a cells
T8 sequence (Q9JIP4 whole entry, the tested form may be a part): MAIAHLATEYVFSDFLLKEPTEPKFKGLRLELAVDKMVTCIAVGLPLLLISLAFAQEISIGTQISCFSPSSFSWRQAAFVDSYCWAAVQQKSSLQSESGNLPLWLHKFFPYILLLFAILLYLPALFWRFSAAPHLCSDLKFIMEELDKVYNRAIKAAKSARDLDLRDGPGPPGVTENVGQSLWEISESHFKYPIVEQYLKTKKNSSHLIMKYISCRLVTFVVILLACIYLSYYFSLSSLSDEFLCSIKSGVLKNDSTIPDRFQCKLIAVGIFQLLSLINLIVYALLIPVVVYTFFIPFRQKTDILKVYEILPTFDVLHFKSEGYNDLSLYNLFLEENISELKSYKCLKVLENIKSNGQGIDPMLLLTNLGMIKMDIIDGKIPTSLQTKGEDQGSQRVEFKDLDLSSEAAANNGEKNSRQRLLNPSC

drPanx1b [9] = biological target: T9, drPanx1b (Danio rerio, UniProt F1QSR7, H238Y)
T9 construct: gene panx1b; full length aa 1-422, C-terminal EYFP fusion (pEYFP-N1), transient in mouse N2a cells
T9 sequence (F1QSR7 1-422 H238Y): T2 sequence (F1QSR7 1-422 R75C/H238Y) with C75R

drPanx1a [10] = biological target: T10, drPanx1a (Danio rerio, UniProt A0A8M1PG01, C76E); conditions: 100 uM BBG, 20 uM EtBr, 5 min, pH 7.4; endogenous Panx1 and P2X7-R in N2a host
T10 construct: gene panx1a; full length aa 1-417 (natural Cys at position 76), C-terminal EYFP fusion (pEYFP-N1), transient in mouse N2a cells
T10 sequence (A0A8M1PG01 1-417 C76E): T1 sequence (A0A8M1PG01 1-417 C76A) with A76E

drPanx1b [11] = biological target: T11, drPanx1b (Danio rerio, UniProt F1QSR7, R75A/H238Y); conditions: 100 uM BBG, 20 uM EtBr, 5 min, pH 7.4; endogenous Panx1 and P2X7-R in N2a host
T11 construct: gene panx1b; full length aa 1-422, C-terminal EYFP fusion (pEYFP-N1), transient in mouse N2a cells
T11 sequence (F1QSR7 1-422 R75A/H238Y): T2 sequence (F1QSR7 1-422 R75C/H238Y) with C75A

mPanx1 [12] = biological target: T8, mPanx1; conditions: 20 uM EtBr, 5 min, pH 7.4; channel permeant dye
drPanx1b [13] = biological target: T11, drPanx1b; conditions: 500 uM ATP, 20 uM EtBr, 5 min, pH 7.4; endogenous Panx1 and P2X7-R in N2a host
drPanx1a [14] = biological target: T10, drPanx1a; conditions: 3 mM ATP, 20 uM EtBr, 5 min, pH 7.4; endogenous Panx1 and P2X7-R in N2a host

% inhibition at 100 uM (drPanx1b [2]): drPanx1b WT > R75C > R75K ≥ R75A ≥ R75E | % inhibition at 100 uM (drPanx1b [3]): drPanx1b WT > R75C > R75K ≥ R75A ≥ R75E | % inhibition at 100 uM (drPanx1a [4]): BBG: drPanx1a-C76R > C76K > WT | % inhibition at 100 uM (drPanx1a [5]): BBG: drPanx1a-C76R > C76K > WT | % inhibition at 100 uM (drPanx1b [6]): drPanx1b WT > R75C > R75K ≥ R75A ≥ R75E | inhibition at 100 µM (drPanx1a [7]): 33.4 ± 1.7% | inhibition at 100 µM (mPanx1 [8]): 40.6 ± 1.4% | inhibition at 100 µM (drPanx1b [9]): 64.1 ± 1% | % inhibition at 100 uM (drPanx1b [11]): drPanx1b WT > R75C > R75K ≥ R75A ≥ R75E
Structure (SMILES): CCOc1ccc(Nc2ccc(C(=C3C=CC(=[N+](CC)Cc4cccc(S(=O)(=O)[O-])c4)C=C3C)c3ccc(N(CC)Cc4cccc(S(=O)(=O)O)c4)cc3C)cc2)cc1 [brilliant blue G]
% inhibition at 100 uM (drPanx1a [1]): BBG: drPanx1a-C76R > C76K > WT ≥ C76A > C76E | % inhibition at 100 uM (drPanx1a [10]): BBG: drPanx1a-C76R > C76K > WT ≥ C76A > C76E

Structure (SMILES): CC[n+]1c(-c2ccccc2)c2cc(N)ccc2c2ccc(N)cc21 [Ethidium bromide]
ethidium dye uptake in transfected N2a cells (mPanx1 [12]): EtBr uptake was significantly increased in mPanx1

% inhibition at 500 uM (drPanx1b [13]): drPanx1b WT ≥ R75K ≥ R75C > R75E ≥ R75A | % inhibition at 3 mM (drPanx1a [14]): ATP: drPanx1a-C76E > C76A ≥ WT | inhibition at 3000 µM (drPanx1a [7]; read-out: % inhibition at 3 mM): 20.2 ± 2.2% | inhibition at 500 µM (drPanx1b [9]): 27.3 ± 1.9%
Structure (SMILES): Nc1ncnc2c1ncn2[C@@H]1O[C@H](COP(=O)(O)OP(=O)(O)OP(=O)(O)O)[C@@H](O)[C@H]1O [ATP]
